Measured values: article PMC7503848 (International Journal of Molecular Sciences, 2020)
Entries after “also recorded” stand apart in the source; their conditions may differ.

How the values were obtained:
myosin A tail [1] = test: Far Western-Dot blot assay; format: binding, Plasmodium falciparum; settings: 5 µg immobilized on nitrocellulose; 5 µg/mL biotinylated myosin A tail, 2 h room temperature; anti-biotin
Protocol: For Far-Western Dot-blot assay, 5 µg each of ZA1S peptide, BSA, and non-specific peptide (N′- pSDNGpSGDD -C′) was immobilized on the strip. Subsequent to the drying of the membrane, it was blocked overnight at 4 °C, following which the second peptide myosin A was overlaid in 5 µg/mL of binding solution (1% BSA/PBST) on the strip for 2 h at room temperature. The strip was washed stringently, and the bound myosin A peptide was detected using an anti-biotin antibody (1:100 dilution) and HRP-conjugated secondary antibody.

myosin A tail [2] = test: ELISA, myosin A tail on immobilized ZA1S; format: binding, Plasmodium falciparum; settings: ZA1S coated, myosin A tail overlaid, anti-biotin antibody, 450 nm
From the text: All wells were put up in triplicates.

P. falciparum 3D7 = test: Growth inhibition assay (GIA), P. falciparum 3D7; format: cell-based, Plasmodium falciparum
Protocol: P. falciparum 3D7 strain was thawed and cultured in vitro in human O+ erythrocytes at 4% hematocrit using the method described previously. Briefly, parasites were cultured in medium containing RPMI 1640 (Invitrogen, Carlsbad, CA, USA), supplemented with 2 g/L NaHCO3 (Sigma, St. Louis, MO, USA), 5 g/L albumax (Invitrogen), 50 mg/L hypoxanthine (Sigma), and 10 µg/mL gentamicin sulfate (Invitrogen, Carlsbad, CA, USA) at a pH of 7.2 under mixed gas condition (5% CO2, 5% O2, […]) at 37 °C.
For the growth inhibition assay, 36–38 h’ parasites were purified by percoll (GE Healthcare, Chicago, IL, USA) density gradient centrifugation. The assay was put on the late trophozoite stage in a 24-well plate in quadruplets in a total 500 µL volume/well. Initial parasitemia and hematocrit were adjusted to 1% and 2%, respectively. ZA1S peptide was added at a final concentration of 10 µM, 20 µM, and 40 µM. Control wells without any peptide or inhibitor were set to validate the normal growth rate of the parasite. After 24 h, a smear was made and fixed in methanol, followed by staining with 10% Giemsa (Sigma, St. Louis, MO, USA) for 10 min. The percent of infected erythrocytes containing different stages of the parasite was counted using a light microscope under 100X oil-immersion. The percent of growth inhibition was calculated using the following formula, and data were plotted graphically. % Growth inhibition = (Control-treated)/Control × 100

## DIDIDIMHE [ZA1S, nine amino acid long shortened peptide derived from ZA1 (…)]
Myosin A tail [1]
  Detection of bound myosin A: Myosin A was detected in the spot corresponding to ZA1S
Myosin A tail [2]
  Binding of myosin A tail to ZA1S: significant binding
P. falciparum 3D7; 10, 20, 40 µM ZA1S on late trophozoite/schizont stage, 24 h, 1% parasitemia, 2% hematocrit, human O+ erythrocytes, Giemsa smear
  Invasion inhibition: concentration-dependent increase in invasion inhibition; also recorded: abrogated the invasion of P. falciparum in RBCs
P. falciparum 3D7; Pfal growth inhibition assay
  Completeness of parasite invasion inhibition: we did not find a complete disruption of myosin A/MTIP complex so as to completely inhibit parasite invasion
P. falciparum 3D7; increasing concentrations of ZA1S (10, 20, 40 µM), 24 h, Giemsa smear
  Parasite morphology: no change in the parasite morphology
